Data set [1] has as its system MES-SA. The data set can be described thus: Antiproliferative activity against human MES-SA cells assessed as reduction in cell viability incubated for 72 hrs by CelltiterGlo luminescent assay.
For data set [2], the system named is HeLa. Briefly: Antiproliferative activity against human HeLa cells assessed as inhibition of cell growth incubated for 72 hrs in absence of verapamil by MTT assay. In kind it is functional, cell-based. A general note: Tetrazolium dyes change colour on reduction, which living cells bring about.
Data set [3] has as its target Tubulin (Homo sapiens) (UniProt P68371+Q9H4B7+P0DPH7+P68366+Q13509+Q71U36+P04350+Q3ZCM7+P07437+P68363+Q9BQE3+Q6PEY2+Q13885+Q9BVA1+Q9BUF5). Briefly: Inhibition of tubulin polymerization in human MES-SA cells assessed as appearance of spherical shaped cells at 10 nM incubated for 24 hrs by DAPI staining based confocal microscopy analysis. It counts as cell-based.
Data set [4] concerns BT-474. Briefly: Antiproliferative activity against human BT-474 cells assessed as reduction in cell viability incubated for 72 hrs by CelltiterGlo luminescent assay. Conditions: BT-474, 72 h. On the technique in general: Cellular ATP, detected with luciferase, serves as a proxy for viable cell number.
Data set [5] can be described thus: Antiproliferative activity against human Hermes 3C cells assessed as reduction in cell viability incubated for 72 hrs by CelltiterGlo luminescent assay. It counts as toxicity, cell-based.
Data set [6] relates to MES-SA. Briefly: Cell cycle distribution in human MES-SA cells assessed as accumulation of cells in G2 phase cells at 100 nM incubated for 24 hrs by Hoechst 33258 staining based flow cytometry (reference value: 12 %). In kind it is functional. (In flow cytometry, cells or beads pass a laser one at a time.)
For data set [7], the system named is MES-SA. The data set can be described thus: Induction of apoptosis in human MES-SA cells assessed as increase in caspase 3/7 activation at 100 nM by live-cell imaging based fluorescence assay. It counts as functional. The settings on record: time 3.0 day, TDE = time-dependent effect.
Data set [8] concerns MES-SA. Briefly: Induction of apoptosis in human MES-SA cells assessed as necrotic cells at 100 nM incubated for 24 hrs by live/dead orange and TUNEL staining based flow cytometry analysis relative to control. It counts as functional.
Data set [9] is described as follows: Antiproliferative activity against human HEK293 cells assessed as reduction in cell viability incubated for 72 hrs by CelltiterGlo luminescent assay. It counts as toxicity, cell-based.
Data set [10] relates to MES-SA. The data set can be described thus: Induction of apoptosis in human MES-SA cells assessed as dead cells at 100 nM incubated for 24 hrs by live/dead orange and TUNEL staining based flow cytometry analysis relative to control. It counts as functional.
Data set [11] deals with MES-SA. Briefly: Cell cycle distribution in human MES-SA cells assessed as accumulation of cells in G2/M phase cells at 100 nM incubated for 24 hrs by Hoechst 33258 staining based flow cytometry (reference value: 13.3 %). It counts as functional.
Data set [12] is described as follows: Antiproliferative activity against human WM1366 cells assessed as reduction in cell viability incubated for 72 hrs by CelltiterGlo luminescent assay. Conditions: WM1366, 72 h.
The nature of data set [13]: cells. The settings on record: Homo sapiens, MDA-MB-468, 72 h.
Data set [14] has as its system CAKI-1. The data set can be described thus: Antiproliferative activity against human CAKI-1 cells assessed as reduction in cell viability incubated for 72 hrs by CelltiterGlo luminescent assay. Conditions: CAKI-1, 72 h.
For data set [15], the system named is HeLa. Briefly: Antiproliferative activity against human HeLa cells assessed as inhibition of cell growth incubated for 72 hrs in presence of verapamil by MTT assay. In kind it is functional, cell-based.
Data set [16] has as its system MDA-MB-468. The data set can be described thus: cells. Conditions: Homo sapiens, MDA-MB-468, 72 h.
Description: Antiproliferative activity against human MDA-MB-468 cells assessed as reduction in cell viability incubated for 72 hrs by CelltiterGlo luminescent assay
Data set [17] has as its system MES-SA. Briefly: Cell cycle distribution in human MES-SA cells assessed as accumulation of cells in M phase cells at 100 nM incubated for 24 hrs by Hoechst 33258 staining based flow cytometry (reference value: 1.3 %). In kind it is functional.
For data set [18], the system named is HeLa. The data set can be described thus: Antiproliferative activity against human HeLa cells assessed as reduction in cell viability incubated for 72 hrs by MTT assay. In kind it is functional, cell-based.
Data set [19] deals with HeLa. Briefly: Antiproliferative activity against human HeLa cells assessed as reduction in cell viability incubated for 72 hrs by CelltiterGlo luminescent assay. In kind it is functional, cell-based.
Data set [20] concerns A-375. The data set can be described thus: Antiproliferative activity against human A-375 cells assessed as reduction in cell viability incubated for 72 hrs by CelltiterGlo luminescent assay. Conditions: A-375, 72 h.
Data set [21] in a line: Antiproliferative activity against human RPE-1 cells assessed as reduction in cell viability incubated for 72 hrs by CelltiterGlo luminescent assay. In kind it is toxicity, cell-based. Conditions: RPE-1 cells (TERT-RPE1).
In data set [22] the test system is MES-SA. The data set can be described thus: Induction of apoptosis in human MES-SA cells assessed as live cells at 100 nM incubated for 24 hrs by live/dead orange and TUNEL staining based flow cytometry analysis relative to control. In kind it is functional.
The subject of data set [23] is MES-SA. Briefly: Cell cycle distribution in human MES-SA cells assessed as accumulation of cells in S phase cells at 100 nM incubated for 24 hrs by Hoechst 33258 staining based flow cytometry (reference value: 27 %). It counts as functional.
The subject of data set [24] is MES-SA. Briefly: Induction of apoptosis in human MES-SA cells assessed as apoptotic cells at 100 nM incubated for 24 hrs by live/dead orange and TUNEL staining based flow cytometry analysis relative to control. In kind it is functional.
For data set [25], the system named is MCF7. Briefly: Antiproliferative activity against human MCF7 cells assessed as reduction in cell viability incubated for 72 hrs by CelltiterGlo luminescent assay. In kind it is functional, cell-based. Conditions: MCF7, 72 h.
The test system of data set [26] is HT-1080. Briefly: Antiproliferative activity against human HT-1080 cells assessed as reduction in cell viability incubated for 72 hrs by CelltiterGlo luminescent assay. Conditions: HT-1080, 72 h.
The nature of data set [27]: Antiproliferative activity against human Melmet 5 cells assessed as reduction in cell viability incubated for 72 hrs by CelltiterGlo luminescent assay. Conditions: Melmet 5, 72 h.
The test system of data set [28] is MES-SA. The data set can be described thus: Cell cycle distribution in human MES-SA cells assessed as accumulation of cells in G1 phase cells at 100 nM incubated for 24 hrs by Hoechst 33258 staining based flow cytometry (reference value: 60%). It counts as functional.
In data set [29] the test system is MES-SA. Briefly: Induction of apoptosis in human MES-SA cells assessed as late apoptotic cells at 100 nM incubated for 24 hrs by live/dead orange and TUNEL staining based flow cytometry analysis relative to control. In kind it is functional.

A word on the IC50: it is the point on the concentration scale where inhibition reaches its midpoint.

Each structure is given as a SMILES string. The source made the active and inactive calls. No cut-off for these calls is given here.

In the case of `COc1cc(S(=O)(=O)N(CC#N)c2ccc3c(ccn3C)c2)cc(OC)c1OC`, the 50% inhibitory concentration (IC50) stood at 8.9 nM in data set [1]; 22.3 nM in [2]; 68.3 nM in data set [4]; 52.8 nM in data set [12]; 14.8 nM in data set [13]; 56.2 nM in data set [14]. Further, the 50% inhibitory concentration (IC50) in [15] stood at 16.3 nM; in [16] it was 13 nM; in data set [18], 1.7 nM; in data set [19], 11 nM; in data set [20], 22.1 nM; in data set [25] it was 13.7 nM. Further, the IC50 in data set [26] worked out at 9.9 nM; in [27], 8.9 nM. Also, in data set [3], the inhibition result is “inactive”. Besides, the IC50 at 72 h in data set [5] turned out to be 44.7 nM; in data set [9], 23.4 nM; in data set [21] it was 80.4 nM. Besides, the Activity in data set [6] was 35%; in data set [7] it was “Tde”; in data set [8] it was 4.5%; in data set [10] it was 8%; in [11], 83.6%; in data set [17] it was 48.6%. The Activity in data set [22] is 92%; in data set [23], 6%; in data set [24], 3.1%; in data set [28] it was 4%; in [29], 0.5%.
Turning to `COc1cc(S(=O)(=O)N(C)c2ccc3c(c2)c(C(N)=O)cn3C)cc(OC)c1OC`, the half-inhibitory concentration (IC50) in data set [1] was 12.2 nM; in [2] it was 24.3 nM; in [4] it was 17.9 nM; in data set [12], 21.3 nM; in data set [13], 70.8 nM; in [14], 29.6 nM. Further, the IC50 came out at 18.2 nM in [15]; 26 nM in [16]; 15 nM in data set [18]; 13.9 nM in data set [19]; 22.8 nM in data set [20]; 44 nM in data set [25]. Besides, the half-maximal inhibitory concentration (IC50) was 14.3 nM in [26] and 12.2 nM in data set [27]. In addition, the inhibition entry in data set [3] was “Active”. Moreover, the IC50 at 72 h is 31.8 nM in data set [5], 92.2 nM in data set [9] and 22.7 nM in data set [21]. For the same molecule, the Activity is 10% in data set [6]; “Tde” in [7]; 1.8% in [8]; 83.6% in data set [11]; 75.3% in data set [17]; 91.8% in data set [22]. Besides, the Activity is 6% in data set [23], 4.8% in data set [24], 4% in [28] and 1.6% in data set [29].
`CC[C@]1(O)C[C@H]2CN(CCc3c([nH]c4ccccc34)[C@@](C(=O)OC)(c3cc4c(cc3OC)N(C=O)[C@H]3[C@@](O)(C(=O)OC)[C@H](OC(C)=O)[C@]5(CC)C=CCN6CC[C@]43[C@@H]65)C2)C1` [VINCRISTINE]: the concentration for half-maximal inhibition (IC50) stood at 4.9 nM in [1]; 2.9 nM in [4]; 4.5 nM in data set [12]; 5.7 nM in data set [14]; 0.4 nM in data set [16]; 1 nM in data set [19]. The IC50 in data set [20] was 3.5 nM; in [25], 4.2 nM; in data set [26], 0.3 nM; in data set [27] it was 0.2 nM. Moreover, the inhibition entry in data set [3] is “Active”. Also, the results for the 50% inhibitory concentration (IC50) at 72 h in data set [5], in [9] and in data set [21] were 2.8 nM, 25.8 nM and 7.6 nM, respectively.
For `COc1cc(S(=O)(=O)N(C)c2ccc3c(ccn3C)c2)cc(OC)c1OC`, the concentration for half-maximal inhibition (IC50) in data set [1] turned out to be 9 nM; in data set [2] it was 50.1 nM; in [4], 34.5 nM; in [12], 13.5 nM; in [13], 67.6 nM; in data set [14], 11 nM. For the same molecule, the concentration for half-maximal inhibition (IC50) in [15] amounted to 40.9 nM; in [16] it was 24.4 nM; in data set [18] it was 3.2 nM; in [19] it was 14.5 nM; in data set [20], 17.5 nM; in data set [25], 15.8 nM. The figures for the IC50 in [26] and in data set [27] were 11.8 nM and 12.9 nM, respectively. Also, in data set [3], the inhibition result was “Active”. In addition, the IC50 at 72 h is 67.4 nM in data set [5], 12.3 nM in data set [9] and 20 nM in data set [21]. The Activity was 10% in data set [6]; “Tde” in data set [7]; 3.4% in data set [8]; 83.6% in data set [11]; 75.3% in [17]; 90% in data set [22]. In addition, the Activity in data set [23] is on record as 6%; in [24], 5.7%; in [28], 4%; in data set [29], 0.9%.
Turning to `COc1cc(S(=O)(=O)Nc2ccc3c(ccn3C)c2)cc(OC)c1OC`, the 50% inhibitory concentration (IC50) in data set [1] came out at 5.6 nM; in data set [2], 22.9 nM; in data set [4], 46.1 nM; in [12], 7.1 nM; in [13], 29.6 nM; in data set [14], 4 nM. Moreover, the 50% inhibitory concentration (IC50) in data set [15] worked out at 17.9 nM; in data set [16], 4.5 nM; in data set [18], 5.3 nM; in data set [19], 3.9 nM; in data set [20], 6.4 nM; in data set [25], 1.4 nM. The results for the half-inhibitory concentration (IC50) in data set [26] and in [27] were 5.6 nM and 1.4 nM, respectively. Moreover, the inhibition entry in [3] is “inactive”. The results for the IC50 at 72 h in [5], in data set [9] and in data set [21] were 61 nM, 4.9 nM and 5.7 nM, respectively. Moreover, the Activity in data set [6] is 29%; in [7], “Tde”; in [8] it was 4.7%; in data set [11] it was 83.6%; in data set [17] it was 56.8%; in [22], 90.3%. For the same molecule, the Activity in data set [23] worked out at 6%; in [24] it was 4.2%; in data set [28], 4%; in data set [29], 0.8%.
Turning to `CCN(c1ccc2c(ccn2C)c1)S(=O)(=O)c1cc(OC)c(OC)c(OC)c1`, the IC50 amounted to 148 nM in data set [1]; 123 nM in [2]; 792 nM in [4]; 517 nM in data set [12]; 145 nM in [13]; 158 nM in data set [14]. Besides, the IC50 in data set [15] came to 105 nM; in data set [16] it was 161 nM; in data set [18], 109 nM; in [19], 108 nM; in data set [20], 363 nM; in [25], 347 nM. In addition, the half-inhibitory concentration (IC50) in data set [26] was 104 nM; in data set [27], 96.2 nM. Also, the 50% inhibitory concentration (IC50) at 72 h came to 965 nM in [5], 323 nM in data set [9] and 335 nM in [21].

For the origin of these results see ChEMBL document CHEMBL5579852, “Promising anti-proliferative indolic benzenesulfonamides alter mechanisms with sulfonamide nitrogen substituents” (Eur J Med Chem, 2024).
